Data published in article PMC11983575, “Study on the synthesis and biological activity of kojic acid triazol thiosemicarbazide Schiff base derivatives” (Journal of Enzyme Inhibition and Medicinal Chemistry, 2025).
Entries after “also recorded” stand apart in the source; their conditions may differ.

Tests used:
mushroom tyrosinase = mushroom tyrosinase (Agaricus bisporus, UniProt C7FF04); experiment: Tyrosinase kinetic analysis (Lineweaver-Burk plots); assay type: biochemical
Method: To study the inhibition type of kojic acid-triazole derivatives, the investigation of inhibitory type of selected compound 6w on mushroom tyrosinase was carried out according to reported protocol. Compound 6w was used at the concentrations of […], respectively. Substrate L-DOPA concentration was between 500 µM and 1000 µM in the process of all kinetic study. Pre-incubation time and measurement time were the same as described in mushroom tyrosinase inhibition assay procedure. Lineweaver–Burk’s plots of inverse of velocities (1/V) versus inverse of substrate concentration 1/[S] µM^−1 were used to determine the type of enzyme inhibition.
Among the assessed kojic acid triazol thiosemicarbazide Schiff base derivatives, compound 6w expressed better tyrosinase inhibitory activity than the other compounds, in order to further explore the inhibition mechanism, the inhibitory type of the compound 6w on mushroom tyrosinase was decided by the Lineweaver–Burk double reciprocal plots. The Lineweaver–Burk plots were obtained by different concentrations of the compound 6w and the substrate (Figure 2(A)). The plots of 1/V versus 1/[S] gave a family of straight lines with different slopes. […] All of the straight lines intersected at a point in the second quadrant. […] The inhibition constant (Ki) of the compound was obtained by a plot of the slope versus the concentrations of the compound 6w, Kis of the compound was obtained by a plot of vertical intercept (1/Vm) versus the concentrations of the compound 6w, the results were shown in Figure 2(B,C). […] Compound 6w has a better binding with free enzyme.
Figure 2. Kinetic inhibition measurement of compound 6w. […] (A) The concentrations of compound 6w in the figure were 0, 0.5 μM, 1 μM, and 2 μM, respectively. (B) The secondary replot indicates the intercept versus the concentrations of compound 6w to define the inhibition constant Kis. (C) The secondary replot indicates the slope versus the concentrations of compound 6w to define the inhibition constant Ki.

[1] = ABTS radical cation scavenging activity assay; details: 734 nm; read-out: ABTS+/IC50 (μM) ± SD
Method: ABTS free radical scavenging activity was performed according to the procedure described by Zhang et al.[40] Test solution of ABTS decolourisation assay was prepared by mixing 2.45 mM potassium persulfate and 7 mM ABTS at 8:12 volume/volume ratio. The working solution was kept in the dark at room temperature for 12–18 h. Before ABTS radical scavenging test, the ABTS test solution was diluted with DMSO to absorbance of 0.7 (±0.02) at 734 nm. One millilitre of diluted ABTS test solution was added to 10 μl of DMSO or test sample. After initial mixing, the working solution was kept in the dark at room temperature for 2–6 min, and the absorbance was measured at 734 nm. This test was carried out in triplicate. DMSO was used as a control. Ascorbic acid was used as antioxidant standard for comparison of the activity. The absorbance of test samples was calculated by the following formula. ABTS scavenging ability %=absorbance of standard−absorbance of sample/absorbance of standard×100.

fresh-cut apples = experiment: Effects on the browning process of fresh-cut apples; design: species or system Fuji apples; details: 6w 25, 50, 100 μM; storage at 5 °C for five days; kojic acid and vitamin C 50 μM as positive controls
Method: Fuji apples were planted in Yantai, China, and were bought from Walmart supermarket in Shaoyang, China. The apples were come from the same batch having similar shapes, maturity, and without injuries, rot, diseases, or pests. Apples were cut into thin pieces with same size by using a sharp knife. Then, the fresh-cut slices were divided randomly into different groups: blank control group was immersed in ethanol for 10 min at room temperature, treatment groups were dipped in the solution of compound 6w under the same conditions, positive groups were dipped in 50 μM kojic acid and 50 μM vitamin C under the same conditions. The test samples were air-dried naturally and immediately were separately packaged with polyethylene clam-packs, and stored at 2–8 °C, and used for the following experimental measurements.
According to the reported protocol, the colour of apple samples was tested by a CR-400 Minolta […] instrument (Konica Minolta, Osaka, Japan). Three data of L*, a*, and b* were recorded for each sample. The L* values indicate lightness, the a* values show reddish-greenish, the b* values represent yellowish-bluish. The colour measurement was carried out in triplicate by random sampling.
Therefore, we further evaluated its anti-browning effect on apple, in which kojic acid and vitamin C were used as positive control. […]

Sequence of mushroom tyrosinase (C7FF04 1-392): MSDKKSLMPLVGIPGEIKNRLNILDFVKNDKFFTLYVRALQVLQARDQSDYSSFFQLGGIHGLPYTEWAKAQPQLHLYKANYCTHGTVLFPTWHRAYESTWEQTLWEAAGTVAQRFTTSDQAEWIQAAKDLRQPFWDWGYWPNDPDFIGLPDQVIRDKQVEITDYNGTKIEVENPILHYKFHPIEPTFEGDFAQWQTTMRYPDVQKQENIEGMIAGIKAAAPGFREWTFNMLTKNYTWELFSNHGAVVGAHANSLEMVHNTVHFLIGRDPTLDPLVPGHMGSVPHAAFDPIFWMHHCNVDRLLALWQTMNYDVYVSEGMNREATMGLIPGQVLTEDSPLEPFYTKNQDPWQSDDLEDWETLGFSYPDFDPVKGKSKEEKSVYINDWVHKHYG

Substance: 2-(1-(4-((1-((5-Hydroxy-4-oxo-4H-pyran-2-yl)methyl)-1H-1,2,3-triazol-5-yl)methoxy)phenyl)ethylidene)hydrazinecarbothioamide [Compound 6w]
- inhibition type (mushroom tyrosinase; Lineweaver-Burk double reciprocal plots): mixed type inhibitor
- Ki (mushroom tyrosinase; from plot of slope versus concentration of 6w, free enzyme, read-out: inhibition constant Ki): 0.0003 µM
- inhibition constant Kis (mushroom tyrosinase; from plot of vertical intercept (1/Vm) versus concentration of 6w): 0.1997 µM
- IC50 [1]: 3.03 ± 0.009 µM
- anti-browning effect on fresh-cut apple (L* values, colour) (fresh-cut apples): potent anti-browning agent; also recorded: better than that of kojic acid and ascorbic acid; also recorded: some anti-browning effect
